Assay results published in ChEMBL document CHEMBL4477173, “Additional Insights into the Obtusallene Family: Components of Laurencia marilzae” (2016).

These compounds were tested on HepG2 (assay: Induction of apoptosis in human HepG2 cells assessed as apoptotic cells at 50 uM by Annexin V-FITC/propidium iodide staining based flow cytometry relative to control).
Type: functional
C[C@H]1/C=C/C[C@H](Br)[C@@H]2C[C@@H](Cl)[C@@H](C[C@H](C=C=CBr)O1)O2 gave an Activity of 47%. In the case of C[C@@H]1O[C@@H](C=C=CBr)C[C@H]2O[C@@H](C[C@H]2Cl)[C@@H](Br)C[C@H]2O[C@H]12, the Activity is reported as >65%. C[C@@H]1O[C@@H](C=C=CBr)C[C@H]2O[C@@H](C[C@H]2Cl)[C@@H](Br)C[C@@H]2O[C@@H]12 was tested, and the Activity was >70%.
